Test system: Hurley RI 000 tumor infiltrating lymphocytes (cytotoxic T cell specific for the G9-209 epitope encoded by the human melanoma associate protein gp100)
Assay: sensitization of tumor infiltrating lymphocytes and interferon-γ release
Type: cell-based
Conditions: Hurley RI 000 TIL, G9-209 (gp100) specific
From the text: This invention provides novel, synthetic peptide sequences which are useful as components of melanoma vaccines and to expand immune effector cells that are specific for melanoma. […] These assay methods are known in the art and disclosed in Zugel, U. et al. (1998) J Immunol. 161:1705-1709) and Salgaller, M. L. et al. (1995) Infra. The peptide sequences of the present invention differ from the natural epitope (ITDQVPFSV) (Seq. ID No. 5) in two ways: (1) they contain mutation sin the putative HLA-A2 binding domain (amino acid residues 1, 2, and 9) conferring tighter binding to the MHC, and (2) they contain mutations in the putative T cell receptor-binding domain (amino acid residues 3-8) resulting in an apparent increased avidity for the T cell receptor. They also are novel over the synthetic peptides disclosed by Salgaller, et al. (1995) Cancer Res. 55:4972-4979.

FLDQVAFXV
sensitize tumor infiltrating lymphocytes and interferon-γ release: shown to sensitize

FLFSWYAXV
sensitize tumor infiltrating lymphocytes and interferon-γ release: shown to sensitize
